Paper PMC8206213, “An L-2-hydroxyglutarate biosensor based on specific transcriptional regulator LhgR” (Nature Communications, 2021)
“And” between values parts separate entries of the source, which are not always exact repeats. Identical values can stand only once. Like-named read-outs stand apart in the source and are kept apart here.

What was measured:
LHGFR0N3C [1] = experiment: Specificity of purified LHGFR0N3C, emission ratio with 240 μM compounds; format: binding, Pseudomonas putida W619; conditions: 240 μM compound
Procedure: (§1) Purified L-2-HG biosensors and different compounds were diluted by 50 mM Tris-HCl buffer (pH 7.4), mixed together in a black 96-well plate at a volume ratio of 3:1, and the fluorescence intensities were measured using an EnSight microplate reader (PerkinElmer, USA) with excitation at 430 nm, emission at 485 nm (mTFP) and 528 nm (Venus). […] The [L-2-HG], Kd, and p refer to the L-2-HG concentration, apparent dissociation constant, and Hill slope, respectively. Emission spectra were recorded at 430 nm excitation, in steps of 2 nm. Excitation spectra were recorded using emission at 550 nm, excitation from 380 to 535 nm in steps of 2 nm.

LHGFR0N7C [2] = experiment: Specificity of purified LHGFR0N7C, emission ratio with 240 μM compounds; format: binding, Pseudomonas putida W619; conditions: 240 μM compound
Procedure: as §1

LHGFR0N7C [3] = experiment: Influence of other compounds on the response of purified LHGFR0N7C to L-2-HG; format: binding, Pseudomonas putida W619; conditions: Suppl. Fig. 9b, three replicates
Procedure: as §1

LHGFR0N3C [4] = experiment: Influence of other compounds on the response of purified LHGFR0N3C to L-2-HG; format: binding, Pseudomonas putida W619; conditions: Suppl. Fig. 9a, three replicates
Procedure: as §1

P. putida KT2440 [5] = format: cell-based, Pseudomonas putida KT2440; conditions: Fig. 4j
Procedure: The bacterial strains used in this study are listed in Supplementary Data 1. E. coli and its derivatives were cultured in Luria–Bertani (LB) broth at 37 °C and 180 rpm. P. putida KT2440 and its derivatives were grown in minimal salt mediums (MSMs) containing different carbon sources at 30 °C and 200 rpm. Antibiotics were used at the following concentrations: tetracycline at 30 μg mL^−1; kanamycin at 50 μg mL^−1; ampicillin at 100 μg mL^−1; spectinomycin, at 50 μg mL^−1; and chloramphenicol at 40 μg mL^−1.

P. putida KT2440 [6] = format: cell-based, Pseudomonas putida KT2440
[7] = L-2-HG alone or with the compound

O=C(O)C[C@H](O)C(=O)O [L-Malate, L-malate]
Emission ratio (LHGFR0N3C [1]): 1.354 and 1.373 (2×)
Induction of emission ratio changes (LHGFR0N3C [1]): None
Emission ratio (LHGFR0N7C [2]): 1.654 and 1.687 and 1.723
Induction of emission ratio changes (LHGFR0N7C [2]): None
Emission ratio (LHGFR0N7C [3]; [7]): 2.598 and 2.599 and 2.61
Emission ratio (LHGFR0N3C [4]; [7]): 2.062 and 2.063 and 2.08

CC(=O)C(=O)O [Pyruvate, pyruvate]
Emission ratio (LHGFR0N3C [1]): 1.366 and 1.361 and 1.386
Induction of emission ratio changes (LHGFR0N3C [1]): None
Emission ratio (LHGFR0N7C [2]): 1.667 and 1.6731 and 1.709
Induction of emission ratio changes (LHGFR0N7C [2]): None
Emission ratio (LHGFR0N7C [3]; [7]): 2.56 and 2.596 and 2.595
Emission ratio (LHGFR0N3C [4]; [7]): 2.0125 and 2.04 and 2.083

O=C(O)CC(O)(CC(=O)O)C(=O)O [Citrate]
Emission ratio (LHGFR0N3C [1]): 1.344 and 1.397 and 1.391
Induction of emission ratio changes (LHGFR0N3C [1]): None
Emission ratio (LHGFR0N7C [2]): 1.665 and 1.672 and 1.697
Induction of emission ratio changes (LHGFR0N7C [2]): None
Emission ratio (LHGFR0N7C [3]; [7]): 2.561 and 2.588 and 2.595
Emission ratio (LHGFR0N3C [4]; [7]): 1.986 and 2.033 and 2.109

C[C@H](O)C(=O)O [L-Lactate, L-lactate]
Emission ratio (LHGFR0N3C [1]): 1.397 and 1.412 and 1.41
Induction of emission ratio changes (LHGFR0N3C [1]): None
Emission ratio (LHGFR0N7C [2]): 1.748 and 1.739 and 1.741
Induction of emission ratio changes (LHGFR0N7C [2]): None
Emission ratio (LHGFR0N7C [3]; [7]): 2.6205 and 2.619 and 2.644
Emission ratio (LHGFR0N3C [4]; [7]): 2.088 and 2.079 and 2.04

O=C(O)CC(=O)C(=O)O [Oxaloacetate]
Emission ratio (LHGFR0N3C [1]): 1.3879 and 1.4027 and 1.379
Induction of emission ratio changes (LHGFR0N3C [1]): None
Emission ratio (LHGFR0N7C [2]): 1.671 (2×) and 1.68
Induction of emission ratio changes (LHGFR0N7C [2]): None
Emission ratio (LHGFR0N7C [3]; [7]): 2.5106 and 2.58 and 2.608
Emission ratio (LHGFR0N3C [4]; [7]): 2.024 and 2.069 and 2.088

Nc1ncnc2c1ncn2[C@@H]1O[C@H](COP(=O)(O)OP(=O)(O)OP(=O)(O)O)[C@@H](O)[C@H]1O [ATP]
Emission ratio (LHGFR0N7C [3]; 50 μM ATP): 2.546 and 2.581 and 2.59
Emission ratio (LHGFR0N7C [3]; 100 μM ATP): 2.59 and 2.574 and 2.618
Emission ratio (LHGFR0N7C [3]; 500 μM ATP): 2.6191 and 2.584 and 2.589
Emission ratio (LHGFR0N7C [3]; 1 mM ATP): 2.6148 and 2.611 (2×)
Emission ratio (LHGFR0N7C [3]; 5 mM ATP): 2.6574 and 2.624 and 2.63
Emission ratio (LHGFR0N3C [4]; 50 μM ATP): 2.0763 and 2.03 and 2.053
Emission ratio (LHGFR0N3C [4]; 100 μM ATP): 2.022 and 2.017 and 2.045
Emission ratio (LHGFR0N3C [4]; 500 μM ATP): 2.063 (2×) and 2.059
Emission ratio (LHGFR0N3C [4]; 1 mM ATP): 2.142 and 2.082 and 2.1362
Emission ratio (LHGFR0N3C [4]; 5 mM ATP): 2.1045 and 2.1074 and 2.154

O=C(O)/C=C/C(=O)O [Fumarate]
Emission ratio (LHGFR0N3C [1]): 1.378 and 1.374 and 1.399
Induction of emission ratio changes (LHGFR0N3C [1]): None
Emission ratio (LHGFR0N7C [2]): 1.695 and 1.71 and 1.714
Induction of emission ratio changes (LHGFR0N7C [2]): None
Emission ratio (LHGFR0N7C [3]; [7]): 2.613 and 2.5931 and 2.59
Emission ratio (LHGFR0N3C [4]; [7]): 1.9538 and 2.042 and 2.049

C[C@@H](O)C(=O)O [D-Lactate, D-lactate]
Emission ratio (LHGFR0N3C [1]): 1.395
Induction of emission ratio changes (LHGFR0N3C [1]): None
Emission ratio (LHGFR0N7C [2]): 1.7153 and 1.693 and 1.686
Induction of emission ratio changes (LHGFR0N7C [2]): None
Emission ratio (LHGFR0N7C [3]; [7]): 2.595 and 2.609 and 2.633
Emission ratio (LHGFR0N3C [4]; [7]): 2.084 and 2.089 and 2.108

O=C(O)/C=C(/CC(=O)O)C(=O)O [Cis-aconitate, cis-aconitate]
Emission ratio (LHGFR0N3C [1]): 1.358 and 1.383 and 1.3936
Induction of emission ratio changes (LHGFR0N3C [1]): None
Emission ratio (LHGFR0N7C [2]): 1.7035 and 1.722 and 1.738
Induction of emission ratio changes (LHGFR0N7C [2]): None
Emission ratio (LHGFR0N7C [3]; [7]): 2.594 and 2.591 and 2.61
Emission ratio (LHGFR0N3C [4]; [7]): 2.04 and 2.059 and 2.056

OC[C@H]1OC(O)[C@H](O)[C@@H](O)[C@@H]1O (some centres unmarked) [Glucose, glucose]
Growth (P. putida KT2440 [5]; DlhgO, 0 h): 0.077 and 0.079 and 0.073
Growth (P. putida KT2440 [5]; DlhgO, 2 h): 0.083 and 0.078 and 0.075
Growth (P. putida KT2440 [5]; DlhgO, 4 h): 0.24 and 0.208 and 0.228
Growth (P. putida KT2440 [5]; DlhgO, 6 h): 0.666 and 0.603 and 0.661
Growth (P. putida KT2440 [5]; DlhgO, 8 h): 1.5 and 1.401 and 1.461
Growth (P. putida KT2440 [5]; DlhgO, 10 h): 3.165 and 3.065
Growth (P. putida KT2440 [5]; DlhgO, 12 h): 3.835 and 3.65 and 3.86
Growth (P. putida KT2440 [5]; DlhgO, 14 h): 3.605 and 3.535 and 3.66
Growth (P. putida KT2440 [5]; DlhgO, 16 h): 3.66 and 3.5 and 3.7
Growth (P. putida KT2440 [5]; WT, 0 h): 0.077 and 0.08 and 0.081
Growth (P. putida KT2440 [5]; WT, 2 h): 0.079 and 0.092
Growth (P. putida KT2440 [5]; WT, 4 h): 0.25 and 0.292 and 0.281
Growth (P. putida KT2440 [5]; WT, 6 h): 0.635 and 0.605 and 0.701
Growth (P. putida KT2440 [5]; WT, 8 h): 1.404 and 1.446 and 1.5
Growth (P. putida KT2440 [5]; WT, 10 h): 2.675 and 2.785 and 2.9
Growth (P. putida KT2440 [5]; WT, 12 h): 3.11 and 3.205 and 3.1
Growth (P. putida KT2440 [5]; WT, 14 h): 3.13 and 3.115 and 3.035
Growth (P. putida KT2440 [5]; WT, 16 h): 3.015 and 3.115 and 3.15
Extracellular L-2-HG accumulation (P. putida KT2440 [6]; DlhgO, 0 h, Fig. 4l): 0.0018 and 0.00159 and 0.00178
Extracellular L-2-HG accumulation (P. putida KT2440 [6]; DlhgO, 2 h, Fig. 4k): 0.00214 and 0.00144 and 0.00151
Extracellular L-2-HG accumulation (P. putida KT2440 [6]; DlhgO, 2 h, Fig. 4l): 0.00161 and 0.00173 and 0.00155
Extracellular L-2-HG accumulation (P. putida KT2440 [6]; DlhgO, 4 h, Fig. 4l): 0.00126 and 0.00158 and 0.00143
Extracellular L-2-HG accumulation (P. putida KT2440 [6]; DlhgO, 6 h, Fig. 4k): 0.0027 and 0.00158 and 0.00192
Extracellular L-2-HG accumulation (P. putida KT2440 [6]; DlhgO, 6 h, Fig. 4l): 0.00592 and 0.00434 and 0.00414
Extracellular L-2-HG accumulation (P. putida KT2440 [6]; DlhgO, 8 h, Fig. 4l): 0.00588 and 0.0049 and 0.00675
Extracellular L-2-HG accumulation (P. putida KT2440 [6]; DlhgO, 10 h, Fig. 4k): 0.00624 and 0.00847 and 0.00636
Extracellular L-2-HG accumulation (P. putida KT2440 [6]; DlhgO, 10 h, Fig. 4l): 0.00724 and 0.00794 and 0.00631
Extracellular L-2-HG accumulation (P. putida KT2440 [6]; DlhgO, 12 h, Fig. 4k): 0.0023 and 0.00219 and 0.00146
Extracellular L-2-HG accumulation (P. putida KT2440 [6]; DlhgO, 12 h, Fig. 4l): 0.0051 and 0.00546 and 0.00628
Extracellular L-2-HG accumulation (P. putida KT2440 [6]; DlhgO, 14 h, Fig. 4l): 0.00618 and 0.0058 and 0.00573
Extracellular L-2-HG accumulation (P. putida KT2440 [6]; DlhgO, 16 h, Fig. 4k): 0.00357 and 0.00321 and 0.00356
Extracellular L-2-HG accumulation (P. putida KT2440 [6]; DlhgO, 16 h, Fig. 4l): 0.00553 and 0.0046 and 0.00552
Extracellular L-2-HG accumulation (P. putida KT2440 [6]; WT, 0 h, Fig. 4k): 6.56E-04 and 9.68E-04 and 7.73E-04
Extracellular L-2-HG accumulation (P. putida KT2440 [6]; WT, 0 h, Fig. 4l): 9.79E-04 and 0.00104 and 6.27E-04
Extracellular L-2-HG accumulation (P. putida KT2440 [6]; WT, 2 h, Fig. 4k): 1.95E-04 and 2.26E-04 and 1.15E-04
Extracellular L-2-HG accumulation (P. putida KT2440 [6]; WT, 2 h, Fig. 4l): 0.00114 and 7.97E-04 and 9.51E-04
Extracellular L-2-HG accumulation (P. putida KT2440 [6]; WT, 4 h, Fig. 4l): 5.39E-04 and 5.72E-04 and 5.29E-04
Extracellular L-2-HG accumulation (P. putida KT2440 [6]; WT, 6 h, Fig. 4l): 0.00521 and 0.00557 and 0.00468
Extracellular L-2-HG accumulation (P. putida KT2440 [6]; WT, 8 h, Fig. 4k): 0.00293 and 0.00233 and 0.00276
Extracellular L-2-HG accumulation (P. putida KT2440 [6]; WT, 8 h, Fig. 4l): 0.0081 and 0.00438 and 0.0052
Extracellular L-2-HG accumulation (P. putida KT2440 [6]; WT, 10 h, Fig. 4l): 0.00453 and 0.00483 and 0.00472
Extracellular L-2-HG accumulation (P. putida KT2440 [6]; WT, 12 h, Fig. 4l): 0.00448 and 0.00573 and 0.00522
Extracellular L-2-HG accumulation (P. putida KT2440 [6]; WT, 14 h, Fig. 4k): 0.00683 and 0.00582 and 0.00462
Extracellular L-2-HG accumulation (P. putida KT2440 [6]; WT, 14 h, Fig. 4l): 0.0046 and 0.00456 and 0.00492
Extracellular L-2-HG accumulation (P. putida KT2440 [6]; WT, 16 h, Fig. 4k): 0
Extracellular L-2-HG accumulation (P. putida KT2440 [6]; WT, 16 h, Fig. 4l): 0.00403 and 0.00579 and 0.0044
